Tested on: male and female Sprague–Dawley rats
Experiment: 90-day subchronic oral gavage toxicity study
Type: in vivo, rat
Set-up: key to NOEL, absolute liver weight increase / LOEL, absolute liver weight increase / NOEL, relative kidney weight increase / LOEL, relative kidney weight increase / NOEL, absolute kidney weight increase / LOEL, absolute kidney weight increase / NOEL, relative liver weight increase / LOEL, relative liver weight increase: NR: no response, no statistically significant dose-dependent changes
Method: Subchronic (90-day) studies were performed in accordance with current U.S. EPA’s Toxic Substances Control Act Good Laboratory Practice (GLP) Standards, with the following two general exceptions to the GLP guidelines: Analysis of the dose formulations was conducted according to RTI-approved Standard Operating Procedures, and corn oil (the vehicle) was not characterized (certificate of analysis from the vendor is available in the appendices to the final reports). Male and female Sprague–Dawley rats (five dose levels plus a control, n = 10/sex/dose group, corn oil vehicle dose volume of 3 mL/kg; oral gavage) were used in these studies, and the rats were euthanized on SD 91. The dose levels for PFHI were 0, 12.5, 25, 50, 100, and 200 mg/kg-day. The dose levels for MHFPK were 0, 18.8, 37.5, 75, 150, and 300 mg/kg-day. The dose levels for PFNAC were 0, 0.1, 0.3, 1.0, 3.0, and 10 mg/kg-day for male rats and 0, 0.3, 1.0, 3.0, 10, and 30 mg/kg-day for female rats. For CTFPA, the dose levels were 0, 1.9, 3.8. 7.5, 15, and 30 mg/kg-day for male rats and 0, 6.3, 12.5, 25, 50, and 100 mg/kg-day for female rats. For each PFAS, three batches of dosing solution were prepared. The time between the batch preparation of the dosing solutions ranged between 29 and 39 days. Blood samples were collected from all the rats at termination for serum chemistry, hematology, coagulation, and the analysis of the parent PFAS chemical in the plasma. In vivo data collection and further detail on the endpoints examined postmortem are described below.
The rats were observed twice daily for morbidity and mortality throughout the study period. At least once prior to randomization to test groups and weekly thereafter, the rats were physically examined, and bodyweights were obtained. Feed consumption was quantified weekly starting on SD 1.
Neurotoxicity was evaluated using the functional observational battery (FOB) and measuring locomotor activity (LMA) 2–4 h post dosing on SDs 78–80 and 80–84, respectively. For both the 14- and 90-day studies, an ophthalmologic examination was conducted prior to randomization and near the end of the study, using indirect ophthalmoscopy and slit–lamp biomicroscopy (as needed) after the administration of a mydriatic solution.
Hematology, biochemistry, and coagulation endpoints were measured at the termination of the study. A Siemens Advia 2120i hematology analyzer (Siemens Healthineers, Erlangen, Germany) was used to measure (or calculate) the parameters related to the complete blood count, leukocyte differential count, and reticulocyte count. The hematology parameters are listed and described in Table 2. The prothrombin time […] and activated partial thromboplastin time (APTT) were measured using an Instrumentation Laboratory (Bedford, MA, USA) ACL Elite Pro coagulation analyzer (laser–nephelometric centrifugal method).
At necropsy, the rats were visually examined for external abnormalities and organ weights (absolute and relative to the BW and brain weight), which were recorded (paired organs weighed together). The tissues were preserved in 10% neutral buffered formalin (NBF), except for the ocular tissues, testes, and epididymides, which were preserved in modified Davidson’s fixative and later transferred to 10% NBF. Bone marrow smears were prepared from the femurs, and the slides were air-dried, fixed in methanol, stained, and stored at room temperature for possible future evaluation. The preserved tissues were embedded in paraffin, sectioned, stained with hematoxylin and eosin, and examined by a board-certified veterinary pathologist.
Statistical analysis was performed using Provantis™ Version 10 or greater (Instem LSS, Limited; Stone, Staffordshire, UK). Differences among the treatment groups compared to the control were evaluated using one-way analysis of variance (ANOVA) if the underlying assumptions of a normal distribution (Shapiro–Wilk test) and the homogeneity of the variance (Levene’s test) were satisfied. […]

SMILES: CC(=O)C(F)(F)C(F)(F)C(F)(F)F [MHFPK, Methyl heptafluoropropyl ketone]
- Bodyweight (BW) and bodyweight gain (90-day, both sexes, all doses): No changes in BW or BW gain over the course of the study
- Clinical observations (90-day, both sexes, all doses): None
- Coagulation endpoints (90-day, both sexes, all doses): Males at ≥37.5 mg/kg-day, from minimal to mild dose-dependent prolongations in PT; no effects in females
- Feed consumption (90-day, both sexes, all doses): No changes in males; some statistically significant changes in females, not considered as compound related
- Functional observational battery (90-day, both sexes, all doses): No changes
- Gross lesions (90-day, both sexes, all doses): None considered as MHFPK related
- Hematology (90-day, both sexes, all doses): From minimal to mild dose-dependent increases in MPV in both sexes at ≥18.8 mg/kg-day
- Histopathology (90-day, both sexes, all doses): None considered as MHFPK related
- Locomotor activity (90-day, both sexes, all doses): No effects
- Morbidity and mortality (90-day, both sexes, all doses): None
- Ophthalmology (90-day, both sexes, all doses): No ocular lesions
- Organ weight changes (90-day, both sexes, all doses): None considered as MHFPK related
- LOEL, absolute kidney weight increase (female): NR
- LOEL, absolute liver weight increase (female): NR
- LOEL, relative kidney weight increase (female): NR
- LOEL, relative liver weight increase (female): NR
- NOEL, absolute kidney weight increase (female): NR
- NOEL, absolute liver weight increase (female): NR
- NOEL, relative kidney weight increase (female): NR
- NOEL, relative liver weight increase (female): NR
- % BW Gain (female, 18.8 mg/kg-day): 47.40%
- % Diff, % BW Gain (female, 18.8 mg/kg-day): 25.52%
- % Diff, Total BW change (female, 18.8 mg/kg-day): 27.05%
- % Diff, Total Food Consumed (female, 18.8 mg/kg-day): 11.67%
- A/G (female, 18.8 mg/kg-day): 1.12±0.13 ratio
- ABEOS (female, 18.8 mg/kg-day): 0.108±0.037 K/µL
- ABNEUT (female, 18.8 mg/kg-day): 1.004±0.296 K/µL
- ABRETi (female, 18.8 mg/kg-day): 195.85±38.05 10^9/L
- ALB (female, 18.8 mg/kg-day): 4.26 ± 0.27 g/dL
- ALPi (female, 18.8 mg/kg-day): 69.1±55.5 U/L
- APTT (female, 18.8 mg/kg-day): 16.80 s
- BUN (female, 18.8 mg/kg-day): 15.5 ± 2.2 mg/dL
- CHOL (female, 18.8 mg/kg-day): 100.6 ± 17.0 mg/dL
- GLOB (female, 18.8 mg/kg-day): 3.82 ± 0.36 g/dL
- GLUC (female, 18.8 mg/kg-day): 158.0 ± 18.9 mg/dL
- HCT (female, 18.8 mg/kg-day): 46.27±2.37%
- HGB (female, 18.8 mg/kg-day): 14.58 ± 0.67 g/dL
- Kidney Weight (female, 18.8 mg/kg-day): 1.94 g
- Kidney/Body Weight (female, 18.8 mg/kg-day): 0.56%
- Kidney/Brain Weight (female, 18.8 mg/kg-day): 96.5%
- Liver Weight (female, 18.8 mg/kg-day): 8.74 g
- Liver/Body Weight (female, 18.8 mg/kg-day): 2.51%
- Liver/Brain Weight (female, 18.8 mg/kg-day): 435%
- MPV (female, 18.8 mg/kg-day): 8.22 ± 0.82 fL
- PT (female, 18.8 mg/kg-day): 15.23 s
- RBC (female, 18.8 mg/kg-day): 7.887±0.439 M/µL
- Total BW change (female, 18.8 mg/kg-day): 115.68 g
- Total Food Consumed (female, 18.8 mg/kg-day): 1629 g
- % BW Gain (female, 37.5 mg/kg-day): 44.49%
- % Diff, % BW Gain (female, 37.5 mg/kg-day): 17.83%
- % Diff, Total BW change (female, 37.5 mg/kg-day): 18.53%
- % Diff, Total Food Consumed (female, 37.5 mg/kg-day): 1.46%
- A/G (female, 37.5 mg/kg-day): 1.05±0.08 ratio
- ABEOS (female, 37.5 mg/kg-day): 0.102±0.040 K/µL
- ABNEUT (female, 37.5 mg/kg-day): 1.068±0.314 K/µL
- ABRETi (female, 37.5 mg/kg-day): 190.80±35.78 10^9/L
- ALB (female, 37.5 mg/kg-day): 4.17 ± 0.35 g/dL
- ALPi (female, 37.5 mg/kg-day): 56.9±24.3 U/L
- APTT (female, 37.5 mg/kg-day): 18.10 s
- BUN (female, 37.5 mg/kg-day): 14.7 ± 2.4 mg/dL
- CHOL (female, 37.5 mg/kg-day): 106.5 ± 21.4 mg/dL
- GLOB (female, 37.5 mg/kg-day): 3.99 ± 0.28 g/dL
- GLUC (female, 37.5 mg/kg-day): 161.9 ± 28.0 mg/dL
- HCT (female, 37.5 mg/kg-day): 46.13±1.42%
- HGB (female, 37.5 mg/kg-day): 14.42 ± 0.61 g/dL
- Kidney Weight (female, 37.5 mg/kg-day): 1.84 g
- Kidney/Body Weight (female, 37.5 mg/kg-day): 0.55%
- Kidney/Brain Weight (female, 37.5 mg/kg-day): 91.4%
- Liver Weight (female, 37.5 mg/kg-day): 8.76 g
- Liver/Body Weight (female, 37.5 mg/kg-day): 2.58%
- Liver/Brain Weight (female, 37.5 mg/kg-day): 433%
- MPV (female, 37.5 mg/kg-day): 8.56 ± 0.67 fL
- PT (female, 37.5 mg/kg-day): 14.98 s
- RBC (female, 37.5 mg/kg-day): 7.864±0.307 M/µL
- Total BW change (female, 37.5 mg/kg-day): 107.92 g
- Total Food Consumed (female, 37.5 mg/kg-day): 1480 g
- % BW Gain (female, 75 mg/kg-day): 39.38%

Reference: PMC12298827, “Subchronic Toxicities of Four Per- and Polyfluoroalkyl Substances (PFASs) by Oral Exposure in Sprague–Dawley Rats” (Toxics, 2025)
